In general, melting point refers to the temperature of the solid-liquid transition. For orientation: Ki means the equilibrium dissociation constant of an inhibitor or competing ligand from its target.

In series [1] the test system is tau pathology in human AD slices. Nature of the series: [18F]Co. No. 1 binding to human AD tissue in the presence of MAO binders. Particulars: 0.2 mCi/mL tracer; for effect on [18F]Co. No. 1 binding pattern in human AD slices: compound 10 μM. Here is the method:
c) Binding of [^18F] Co. No. 1 to human AD tissue was assessed in the presence of reported MAO binders. […] This binding pattern was maintained when the sample was incubated with 10 μM of clorgiline, a strong irreversible MAO binder with moderate selectivity for the A-subtype (FIG. 7B), or 10 μM selegiline (=deprenyl), a strong irreversible MAO-B binder (FIG. 7C). The binding of [^18F] […] Adjacent AD slices were immunostained with anti-tau (AT8) and anti-Aβ (4G8) antibodies to correlate with [^18F]Co. No. 1 binding (FIG. 8).

A further series has as its system MAO. Nature of the series: in vitro binding of tritiated tracers to MAO-rich human tissue (striatum). The conditions noted are these: cold compound 10 μM; 10 nM [3H]-THK-5351. Here is the method: The tracer was tested at 10 nM and higher concentrations were not investigated in this study.
In comparison, the tau tracer [^3H]-THK-5351 and the Aβ tracer [^3H]-AV-45 were used as THK-5351 is known to also bind MAO.

Series [2] concerns the target extracted human tau aggregates (Homo sapiens, UniProt P10636). Put plainly: competitive radioligand binding assay, [3H]-T808 displacement. Here is the method: Briefly, frozen human AD brain samples (˜10 g) were homogenized with 10 vol of cold homogenization buffer (10 mM Tris, 800 mM NaCl, 1 mM EGTA, 10% sucrose, pH 7.4 containing PhosSTOP phosphatase and cOmplete EDTA-free protease inhibitor (Roche, Vilvoorde, Belgium)) on ice. After centrifugation at 27 000×g for 20 min at 4° C. the supernatant was recovered and 1% (w/v) N-lauroylsarcosine and 1% (v/v) 2-mercaptoethanol were added. The N-lauroylsarcosine/2-mercaptoethanol supernatant was incubated for 2 h at 37° C. while shaking on an orbital shaker. Subsequently, ultracentrifugation at 108 000×g for 1.5 h at room temperature enriched aggregated tau in the pellet. Supernatant was removed and the pellet was carefully rinsed twice with a small amount of TBS (50 mM Tris, 150 mM NaCl, pH 7.4). […]
Briefly, aggregated tau preps were diluted to 100 μg protein/mi in PBS buffer with 5% ethanol. […] After overnight drying of the filter plate, Microscint O liquid (Perkin Elmer) was added and the amount of radiolabeled ligand bound to the fibrils is measured by liquid scintillation counting in a Topcount instrument (Packard Instrument Company, Connecticut, USA).
(§1) Values for half-maximal inhibitory concentration (IC50) were determined from displacement curves of at least two independent experiments using GraphPad Prism software (GraphPad Software, San Diego, CA).

For series [3], the target named is T1, extracted human amyloid-beta aggregates (Homo sapiens, UniProt P05067).
T1 construct: amyloid plaques which form by aggregation of beta-amyloid peptide; from tissue; host or cells: human AD brain, occipital cortex with high amyloid plaque load
Nature of the series: competitive radioligand binding assay, [3H]-AV-45 displacement. The method, then: Enriched aggregated β-amyloid preps were prepared from frozen human AD brain samples (10 g—occipital cortex with high amyloid plaques load) that were homogenized with 7-fold vol of cold homogenization buffer (250 mM sucrose, 20 mM Tris base, 1 mM EDTA, 1 mM EGTA and PhosSTOP phosphatase and cOmplete EDTA-free protease inhibitor) on ice. After centrifugation at 27 000×g for 20 min at 4° C. cell debris was removed. Supernatant containing amyloid plaques was aliquoted and stored at −80° C.
The competitive radioligand binding assays measure the binding of a radiolabeled reference ligand in the presence of a dose response concentration range of test compounds.
as §1
To determine compound binding to aggregated β-amyloid a similar assay was put in place but with some minor modifications. […] Nonspecific binding was determined in the presence of 500 μM Thioflavin T. After 150 min incubation at room temperature, the binding mixtures were filtered over GF/B glass filters. […]

For series [4], the system named is NFTs / cortical tau-rich regions. Put plainly: digital autoradiography with [18F]Co. No. 1 on human AD visual cortex slices, with blocking. It counts as binding. The method, then:
Adjacent slices were immunostained for tau pathology (B, AT8) and for amyloid beta pathology (C, 4G8).
a) Air-dried frozen, 10-μm-thick slices of the visual cortex of an AD-patient (with Braak stage V-VI) were incubated for 60 min with [^18F]Co. No. 1 (7.4 kBq/500 μL per slice) and subsequently washed with mixtures of PBS and ethanol as described elsewhere (Xia C. F., Arteaga J., Chen G., et al. Alzheimer's Dement. 2013, 1-11). To assess specificity of binding, slices were incubated with tracer in the presence of 1 μM of authentic T808 or Co. No. 1. After drying, slices were exposed to a phosphor storage screen (super-resolution screen, Perkin Elmer). Screens were read in a Cyclone Plus system (Perkin Elmer, Waltham, MA, U.S.A.) and analyzed using Optiquant software. Results are expressed as digital light units per square mm (DLU/mm^2). Adjacent AD slices were immunostained with anti-tau (AT8) and anti-Aβ antibodies (4G8), to correlate with [^18F]Co. No. 1 binding.

Series [5] can be described thus: microPET imaging, Wistar rats. Type of series: in vivo, Wistar rat. Particulars: for SUV value at 60 min p.i. (brain wash-out) / initial brain uptake, high intensity SUV value in the brain: baseline scan, whole brain; for initial brain uptake, high intensity SUV value in the brain: IV about 50 MBq; for effect of pre-treatment / chase with cold compound on brain uptake: pre-treatment 10 mg/kg SC 60 min before, chase 1 mg/kg IV 30 min after tracer. The method, then:
Three separate studies are shown: a baseline scan (only tracer), a pre-treatment experiment (cold Co. No. 1 or T807, 10 mg/kg injected subcutaneously 60 min prior to radiotracer injection), and a chase study (cold Co. No. 1 or T807, 1 mg/kg injected intravenously 30 min after radiotracer injection).
A dynamic 120-min μPET scan with [^18F]Co. No. 1 or [^18F]T807 was acquired on a Focus 220 μPET scanner (Concorde Microsystems, Knoxville, TN, U.S.A.) on three female Wistar rats simultaneously. The rats were kept under gas anaesthesia during the whole procedure (2.5% isoflurane in O2 at 1 L/min flow rate). Scans were acquired in list mode and acquisition data were Fourier rebinned in 24 time frames (4×15 s, 4×60 s, 5×180 s, 8×300 s, 3×600 s). Data, which were 3D maximum a posteriori (3D-MAP) reconstructed, were manually aligned with a rat brain ^18F-FDG template in Paxinos coordinates using an affine transformation, to allow predefined volumes of interest (VOIs) analysis (Casteels C., et al. J. Nucl. Med. 2006, 47, 1858-1866). Time-activity curves (TACs) of the whole brain were generated using VOIs with PMOD software (v 3.2, PMOD Technologies, Zürich, Switzerland). Radioactivity concentration in the brain was expressed as standardized uptake value (SUV, calculated as (radioactivity in Bq in brain/mL)/(total injected dose (Bq)/body weight in g)) as a function of time after tracer injection. Scans were started immediately after IV injection of about 50 MBq radiotracer (n=3/tracer). For pre-treatment and displacement studies, cold reference compound Co. No. 1 or T807 was dissolved in a mixture of 5% DMSO, 5% Tween 80 and 40% (2-hydroxypropyl)-β-cyclodextrin, filtered through a 0.22-μm membrane filter (Millex-GV. Millipore) prior to injection. Pre-treatment (n=1) was done by subcutaneous (SC) injection of 10 mg/kg of Co. No. 1 or T807, 60 min prior to radiotracer injection. Displacement (n=1) was performed by IV injection of 1 mg/kg Co. No. 1 or T807 30 min after radiotracer injection. μPET images were compared to a baseline scan (n=1), acquired in a non-treated rat.

Series [6] can be described thus: microPET imaging, rhesus monkey. Type of series: in vivo, rhesus monkey (Macaca mulatta). Particulars: baseline scan; for initial brain uptake, SUV value: total brain, IV 185 MBq. Here is the method: A dynamic 120-min μPET scan with [^18F]Co. No. 1 or [^18F]T807 was performed with a Focus 220 μPET scanner on a rhesus monkey (6 y-old male Macaca mulatta, 7.6 kg), that was sedated with ketamine (Ketalar®) and xylazine (Rompun®) via intramuscular (IM) injection. During scanning the monkey received repeatedly an additional dose of ketamine/xylazine via IV injection. O2 saturation in blood, breathing frequency and heartbeat frequency were monitored during the entire experiment. The head of the animal was placed central in the field of view of the μPET scanner. Scans were acquired in list mode and Fourier rebinned in 24 time frames (4×15 s, 4×60 s, 5×180 s, 8×300 s, 3×600 s). Data were reconstructed using a 3D maximum a posteriori (3D-MAP) iterative reconstruction. TACs of the whole brain were generated using VOIs with PMOD software. Radioactivity concentration in the brain is expressed as SUV as a function of time after tracer injection. Scans were started immediately after IV injection of 185 MBq of [^18F]Co. No. 1 or [^18F]T807 via the vena saphena of the right leg. For the pre-treatment study, cold reference compound Co. No. 1 was dissolved in a mixture of 10% DMSO and 40% (2-hydroxypropyl)-o-cyclodextrin, filtered through a 0.22-μm membrane filter (Millex-GV, Millipore) prior to injection. Pre-treatment (n=1) was done by IV co-injection of 1 mg/kg of cold Co. No. 1 and radiotracer solution. μPET images were compared to a baseline scan (n=1), acquired in the non-treated monkey.

T1 sequence (P05067 672-713 limits assumed): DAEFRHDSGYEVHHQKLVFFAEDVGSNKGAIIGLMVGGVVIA
extracted human tau aggregates, sequence (P10636 623-695 limits assumed): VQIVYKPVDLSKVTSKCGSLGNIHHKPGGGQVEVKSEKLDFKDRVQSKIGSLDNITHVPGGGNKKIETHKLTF

In the case of `FCCc1ccc(Nc2ccc3cnccc3c2)nc1` [Co. No. 3], the melting point came to 208.5 °C.
On the same count and under the same terms, the value for `Cl.FCCCNc1ccc(Nc2ccc3cnccc3c2)nc1` was 285.1 °C.
For `C#CCN(C)[C@H](C)Cc1ccccc1` [selegiline, reference compound], the “effect on [18F]Co. No. 1 binding pattern in human AD slices” value (“effect on [18F]Co. No. 1 binding pattern” for short) in series [1] is listed as “maintained”.
As to `CNc1ccc(-c2ccc3cc(OC[C@H](O)CF)ccc3n2)cn1` [THK-5351, reference compound], the “blocking of [3H]-THK-5351 binding to MAO-rich human tissue” value with MAO was “self-blocked”.
`Cc1ccc(Nc2ccc3cnccc3c2)nc1F` [Co. No. 2] returned a melting point of 203.3 °C.
Same read-out and setting: to `CN(CCF)c1ccc(Nc2ccc3cnccc3c2)nc1` [Co. No. 6] belongs 146.3 °C.
In turn, `Cc1cnc(Nc2ccc3cnccc3c2)cc1F` [Co. No. 1] came in with a melting point of 182.53 °C. Also, the IC50 in series [2] (displacement of [3H]-T808 (10 nM), read-out: pIC50, binding to extracted human tau aggregates (converted)) is 0.00575 µM. The inhibition constant (Ki) in series [2] (displacement of [3H]-T808, read-out: Ki corresponding to pIC50, extracted human tau (converted)) was 0.0024 µM. Besides, the IC50 in series [3] (displacement of [3H]-AV-45 (10 nM), read-out: pIC50, binding to extracted human amyloid-beta aggregates (converted)) is 6.61 µM. The Ki in series [3] (displacement of [3H]-AV-45, read-out: Ki corresponding to pIC50, extracted human amyloid-beta aggregates (converted)) was 3.2 µM. Further, the “inhibition of [18F]Co. No. 1 binding” value in series [4] (blocker 1 μM, human AD visual cortex slices) is recorded as 99%. Also, the “blocking of [3H]-THK-5351 binding to MAO-rich human tissue” value in the series with MAO is given as “blocked”. The “effect on [18F]Co. No. 1 binding pattern” value in series [1] is on record as “entirely blocked”.
For the molecule `[18F]c1ccc(-c2ccc3c(c2)[nH]c2ccncc23)cn1` [[^18F]T807, reference compound], in series [5], the “SUV value at 60 min p.i. (brain wash-out)” value is given as 0.4; the “initial brain uptake, high intensity SUV value in the brain” value was ~1.8; the “effect of pre-treatment / chase with cold compound on brain uptake” value is reported as “Lower brain uptake during the baseline scan”. In series [6], the brain wash-out entry is on record as “slower” and the “initial brain uptake, SUV value” is on record as ~1.3.
Regarding `Cl.FCCCOc1ccc(Nc2ccc3cnccc3c2)nc1`, the melting point was found to be 249.3 °C.
For the molecule `FCCOc1ccc(Nc2ccc3cnccc3c2)nc1` [Co. No. 9], the melting point came out at 104.6 °C.
With `C#CCN(C)CCCOc1ccc(Cl)cc1Cl` [clorgiline, reference compound], in series [1], the “effect on [18F]Co. No. 1 binding pattern” value was “maintained”.
`FCCNc1ccc(Nc2ccc3cnccc3c2)nc1` [Co. No. 5] registered a melting point of 191.4 °C.
As for `Cc1cnc(Nc2ccc3cnccc3c2)cc1[18F]` [[^18F]Co. No. 1], the “tracer binding in digital autoradiography” value in series [4] (7.4 kBq/500 μL per slice, human AD slices) was “high and selective binding to cortical tau-rich regions”. The “tracer binding to tau pathology in human AD slices” value in series [1] is “strong binding”. For the same molecule, in series [5], the “SUV value at 60 min p.i. (brain wash-out)” value is reported as 0.2; the “initial brain uptake, high intensity SUV value in the brain” value was ~2.0; the “effect of pre-treatment / chase with cold compound on brain uptake” value is “No self-blocking or self-chase effect”. In series [6], the brain wash-out result is on record as “rapid wash-out”; the “distribution over brain regions” value is listed as “homogeneous distribution”; the “initial brain uptake, SUV value” is listed as ~5.4.
Regarding `FCOc1ccc(Nc2ccc3cnccc3c2)nc1` [Co. No. 4], the melting point worked out at 173.1 °C.

(Values after patent US12006302B2, “Tau PET imaging ligands” (Janssen Pharmaceutica NV, priority 2016, dated 2024).)
